Our source for the embryo callus response values is patent US20070061917A1, “Methods and compositions for the expression of a polynucleotide of interest” (Pioneer Hi-Bred International, Inc., priority 2005, published 2007).

The subject of test [1] is infected GS3 embryos with the GAT construct. Briefly: Glyphosate response of embryos infected with the GAT construct. Format: cell-based, maize. The note with it: about 40 days culture. How it is done: (§1) A glyphosate kill curve was established by testing non-transformed embryos response on media with different levels of glyphosate. GS3 embryos were isolated from an immature ear and placed onto media containing glyphosate at 0.0, 0.5, 1.0, and 2.0 mM. After about 40 days culture, the response of the embryos were observed and recorded. Similarly, infected GS3 embryos with the GAT construct were placed onto media containing glyphosate at 0.0, 0.5, 1.0, and 2.0 mM. After about 40 days culture, the response of the infected embryos were observed and recorded (FIG. 7).
(§2) Western or PCR analysis has confirmed that these resistant calli were transformed. Currently, GAT has performed consistently as an effective selectable marker with excellent transformation efficiency in both GS3 and introEF09B genotypes (FIG. 9 and Table 1).

In test [2] the test system is non-transformed GS3 embryos. As to the kind of experiment: Glyphosate kill curve on non-transformed embryos. Format: cell-based, maize. The note with it: about 40 days culture. How it is done:
as §1, §2

As to `O=C(O)CNCP(=O)(O)O` [glyphosate], the embryo callus response is listed as “more callus was grown” in test [1] (0.5 mM glyphosate in medium); “some embryos initiated resistant callus” in test [1] (1.0 mM glyphosate in medium); “some embryos initiated resistant callus” in test [1] (2.0 mM glyphosate in medium); “about half of the embryos” in test [2] (0.5 mM glyphosate in medium); “very little callus growth” in test [2] (1.0 mM glyphosate in medium); “very little callus growth” in test [2] (2.0 mM glyphosate in medium).
